Where a name gives a salt, the structure may show the parent alone.
Key:
[1] = biological target: T1, human dopamine D3 receptors (Homo sapiens, UniProt P35462); test: Dopamine D3 receptor binding, displacement of [125I]-iodosulpride; settings: membranes from HEK-293 cells with stably expressed human D3 receptors, 0.1 nM [125I]-iodosulpride
T1 construct: expressed in transfected cells; membranes)
Protocol: (§1) The substance to be tested was dissolved either in methanol/Chremophor® (BASF-AG) or in dimethyl sulfoxide and then diluted with water to the desired concentration.
(§2) Triplicate mixtures were carried out.
The incubation buffer comprised 50 mM Tris, 120 mM NaCl, 5 mM KCl, 2 mM CaCl2, 2 mM MgCl2 and 0.1% bovine serum albumin, 10 μM quinolone, 0.1% ascorbic acid (prepared fresh each day). The buffer was adjusted to pH 7.4 with HCl.
(§3) III. Measurement and Evaluation:
(§4) After incubation at 25° C. for 60 minutes, the mixtures were filtered under vacuum through Whatman GF/B glass fiber filters using a cell harvester. The filters were transferred by a filter transfer system into scintillation vials. After addition of 4 ml of Ultima Gold® (Packard), the samples were shaken for one hour and then the radioactivity was counted in a beta counter (Packard, Tricarb 2000 or 2200CA). The cp values were converted into dpm by means of a standard quench series with the aid of the instrument's own program.
(§5) Evaluation of the inhibition plots took place by iterative nonlinear regression analysis using the Statistical Analysis System (SAS) similar to the “LIGAND” program described by Munson and Rodbard.

[2] = biological target: T2, human dopamine D2L receptors (long isoform) (Homo sapiens, UniProt P14416); test: Dopamine D2L receptor binding, displacement of [125I]-iodospiperone; settings: ratio Ki(D2L)/Ki(D3); HEK-293 membranes with human D2L and D3 receptors
T2 construct: expressed in transfected cells; membranes)
Protocol: as §1
II. Dopamine D2L Receptor:
as §2
The incubation buffer comprised 50 mM Tris, 120 mM NaCl, 5 mM KCl, 2 mM CaCl2, 2 mM MgCl2 and 0.1% bovine serum albumin. The buffer was adjusted to pH 7.4 with HCl.
as §3, §4, §5

T2 sequence (P14416 whole entry, canonical isoform): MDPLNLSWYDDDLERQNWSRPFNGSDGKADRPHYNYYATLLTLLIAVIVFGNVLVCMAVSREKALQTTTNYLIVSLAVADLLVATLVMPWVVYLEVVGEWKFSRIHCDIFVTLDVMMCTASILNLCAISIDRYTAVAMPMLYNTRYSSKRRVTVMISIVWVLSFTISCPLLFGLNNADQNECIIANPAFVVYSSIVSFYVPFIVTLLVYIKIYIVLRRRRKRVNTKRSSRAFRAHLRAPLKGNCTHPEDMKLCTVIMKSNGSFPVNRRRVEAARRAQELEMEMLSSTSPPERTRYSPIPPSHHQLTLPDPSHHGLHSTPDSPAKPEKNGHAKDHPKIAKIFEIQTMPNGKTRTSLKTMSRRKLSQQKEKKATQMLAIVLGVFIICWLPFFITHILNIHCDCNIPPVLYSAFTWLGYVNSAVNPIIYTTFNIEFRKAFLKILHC
T1 sequence (P35462 whole entry): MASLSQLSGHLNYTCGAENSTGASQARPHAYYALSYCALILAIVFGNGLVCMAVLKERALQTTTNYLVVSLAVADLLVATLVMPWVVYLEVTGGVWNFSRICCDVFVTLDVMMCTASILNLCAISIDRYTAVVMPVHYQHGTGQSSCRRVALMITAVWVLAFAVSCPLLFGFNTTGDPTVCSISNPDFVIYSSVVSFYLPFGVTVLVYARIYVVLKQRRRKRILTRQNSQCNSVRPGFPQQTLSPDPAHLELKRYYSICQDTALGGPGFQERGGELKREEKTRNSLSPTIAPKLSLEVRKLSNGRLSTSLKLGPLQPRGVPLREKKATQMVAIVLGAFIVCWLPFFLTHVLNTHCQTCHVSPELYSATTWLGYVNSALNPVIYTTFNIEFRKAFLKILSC

Row | Ki [1] [nM] | Selectivity vs. D2L (Ki(D2L)/Ki(D3)) [2] | SMILES
1 | 1.74 | 155 | CC(C)(C)c1nc(N2CCN(C/C=C/CN3C(=O)CCC(=O)c4ccccc43)CC2)cc(C(F)(F)F)n1 [Example 4, 1-((2E)-4-{4-[2-tert-Butyl-6-(trifluoromethyl)pyrimidin-4-yl]piperazin-1-yl}but-2-enyl)-3,4-dihydro-1H-1-benzazepine-2,5-dione]
2 | 4.5 | 104 | COc1cc2c(cc1OC)N(CCCCN1CCN(c3cc(C(F)(F)F)nc(C(C)(C)C)n3)CC1)C(=O)CCC2=O [Example 6, 1-(4-{4-[2-tert-Butyl-6-(trifluoromethyl)pyrimidin-4-yl]piperazin-1-yl}butyl)-7,8-dimethoxy-3,4-dihydro-1H-1-benzazepine-2,5-dione]
3 | 1.33 | 118 | CCCc1cc(N2CCN(CCCCN3C(=O)CCC(=O)c4ccccc43)CC2)nc(C(C)(C)C)n1.Cl [Example 7, 1-{4-[4-(2-tert-Butyl-6-propylpyrimidin-4-yl)piperazin-1-yl]butyl}-3,4-dihydro-1H-1-benzazepine-2,5-dione hydrochloride]
4 | 1.24 | 74 | CC(C)(C)c1cc(N2CCN(CCCCN3C(=O)CCC(=O)c4ccccc43)CC2)nc(C(C)(C)C)n1.Cl [Example 10, 1-{4-[4-(2,6-Di-tert-butylpyrimidin-4-yl)piperazin-1-yl]butyl}-3,4-dihydro-1H-1-benzazepine-2,5-dione hydrochloride]
5 | 0.96 | 62 | CC(C)(C)c1nc(C2CC2)cc(N2CCN(CCCCN3C(=O)CCC(=O)c4ccccc43)CC2)n1 [Example 16, 1-{4-[4-(2-tert-Butyl-6-cyclopropylpyrimidin-4-yl)piperazin-1-yl]butyl}-3,4-dihydro-1H-benzo[b]azepine-2,5-dione]
6 | 2 | 56 | O=C1CCC(=O)N(CCCCN2CCN(c3cc(Cl)cc(Cl)c3)CC2)c2ccccc21 [Example 86, 1-{4-[4-(3,5-Dichlorophenyl)-2,5-piperazin-1-yl]butyl}-3,4-dihydro-1H-benzo[b]azepine-2,5-dione fumarate]

Row | SMILES | Ki [1] [nM] | Selectivity vs. D2L (Ki(D2L)/Ki(D3)) [2]
7 | O=C(O)/C=C/C(=O)O.O=C1CCC(=O)N(CCCCN2CCN(c3cc(C(F)(F)F)cc(C(F)(F)F)c3)CC2)c2ccccc21 [Example 87, 1-{4-[4-(3,5-Bis(trifluoromethyl)phenyl)piperazin-1-yl]butyl}-3,4-dihydro-1H-benzo[b]azepine-2,5-dione fumarate] | 7.4 | 129

— patent US7723384B2, “Keto lactam compounds and use thereof” (Abbott GmbH & Co. KG., priority 2003, dated 2010)
